Entries after “also recorded” stand apart in the source; their conditions may differ. Residues, ends and D or L forms follow the SMILES beside them. Bounds are passed on as bounds.

The conditions of data set [1]: ref Cummings et al., 1994; cited from earlier work. The text has this: (§1) British Journal of Cancer (1996) 73, 715-720 ? 1996 Stockton Press All rights reserved 0007-0920/96 $12.00 % Metabolism of the broad-spectrum neuropeptide growth factor antagonist: ID-Arg1, D-Phe5, D-Trp7'9, Leull"-substance P DA Jones', J Cummings', SP Langdon', AJ Maclellan', T Higgins2, E Rozengurt2 and JF Smyth' 'Imperial Cancer Research Fund, Medical Oncology Unit, Western General Hospital, Edinburgh EH4 2XU; 2Imperial Cancer Research Fund, PO Box 123, Lincoln's Inn Fields, London WC2A 3PX, UK. Summary Broad-spectrum neuropeptide growth factor antagonists, such as [D-Arg', D-Phe5, D-Trp7' ...

Data set [2] in a line: Stability of antagonist D and antagonist G in 1% (w/v) mouse liver homogenate. Type of data set: in vitro ADME. The note with it: for amount of antagonist remaining after 1 h of incubation: 50 nmol in 1.0 ml 1% w/v mouse liver homogenate in PBS pH 7.4, 37°C, HPLC with fluorescence detection, corrected for extraction efficiency (94.4% D, 94% G), three experiments; for amount of metabolite accumulated after 1 h: from 50 nmol parent antagonist in 1% mouse liver homogenate, PBS pH 7.4, 37°C, HPLC fluorescence, extraction efficiency 94.4% (D metabolites), 94% (G metabolites) assumed, mean of three experiments. The text has this: British Journal of Cancer (1996) 73, 715-720 ? 1996 Stockton Press All rights reserved 0007-0920/96 $12.00 % Metabolism of the broad-spectrum neuropeptide growth factor antagonist: ID-Arg1, D-Phe5, D-Trp7'9, Leull"-substance P DA Jones', J Cummings', SP Langdon', AJ Maclellan', T Higgins2, E Rozengurt2 and JF Smyth' 'Imperial Cancer Research Fund, Medical Oncology Unit, Western General Hospital, Edinburgh EH4 2XU; 2Imperial Cancer Research Fund, PO Box 123, Lincoln's Inn Fields, London WC2A 3PX, UK. Summary Broad-spectrum neuropeptide growth factor antagonists, such as [D-Arg', D-Phe5, D-Trp7'9, Leu']substance P (antagonist D) and [Arg6, D-Trp7'9, NmePhe8]substance p(6- 11) (antagonist G), are currently being investigated as possible anti-tumour agents. […] Keywords: broad spectrum; neuropeptide; antagonist; metabolism Successful, long-term treatment of small-cell lung cancer (SCLC) remains a major therapeutic problem. […] The disease is characterised by its ability to secrete and to be growth stimulated by a variety of neuropeptide growth factors that include bombesin/gastrin- releasing peptide (GRP), vasopressin, bradykinin, cholecys- tokinin and neurotensin (Woll and Rozengut, 1989). […] These agents include [D- Arg'-D-Phe5-D-Trp7'9-Leu' 1]-substance P and [Arg6-D-Trp7'9- NmePhe8]-substance P(6-11) (code named antagonists D and G respectively) (Sethi et al., 1992). […] In the near future antagonist G will be the first of this new class of compound, broad- spectrum neuropeptide growth factor antagonists, to enter a phase I clinical trial for the potential treatment of SCLC. […] The research reported here describes the characterisation of the in vitro metabolism of antagonist D, comparing its metabolic stability to that of antagonist G, which we have previously reported (Jones et al., 1995). […] Materials and methods Antagonist D was purchased from Peninsula Laboratories (St Helens, UK), Antagonist G was supplied by Peptech (Europe) (Copenhagen, Denmark). H-D-Arg-Pro-Lys-Pro-D- Phe-Gln-D-Trp-Phe-D-Trp-Leu-Leu-OH (metabolite 1) and H-D-Arg-Pro-Lys-Pro-D-Phe-Gln-D-Trp-Phe-D-Trp-Leu-OH (metabolite 2) were prepared in-house using conventional Fmoc solid-phase peptide synthesis procediures. Reagents for peptide synthesis were purchased from NovaBiochem (UK) (Nottingham, UK). Acetic acid and ammonium acetate were from BDH Chemicals (Poole, UK). Methanol and acetoni- trile were high-performance liquid chromatography (HPLC) grade from Rathburn Chemicals (Walkerburn, UK). Tri- fluoroacetic acid was from Sigma Chemical (Poole, UK). All other chemicals Were of the highest grade commercially available and used without further purification. Water was deionised and bidistilled in a quartz glass still. HPLC The HPLC system used consisted of two 510 HPLC pumps, a 712 WISP autosampler, a TCM column heater (all Waters, Northwich, UK) and a model 1046A fluorescence detector (Hewlett Packard, Walborn, Germany). A Waters MAXIMA 820 computer package was used with a Waters system interface module to control the system operation and collect and integrate data. Separation was achieved on a Prime- sphere 5 gm (250 x 4.6 mm) column (Phenomenex, Maccles- field, UK) using isocratic elution with 45% (v/v) acetonitrile in 0.1% (v/v) aqueous triflouroacetic acid (TFA) at 450C. Detection of the peptides was by fluorescence (Excitation 233 nm Emission 395 nm).

For data set [3], the system named is SCLC xenografts (HC12 and ICR-SC112). The note with it: ref Everard et al., 1993; cited from earlier work.
Excerpt: as §1

Another data set concerns SCLC cells. As to conditions: ref Woll and Rozengurt, 1988; cited from earlier work.
Excerpt: as §1

Data set [4] deals with SCLC xenografts (WX322 and H69). As to conditions: WX322 and H69 xenografts in nude mice; ref Langdon et al., 1992; cited from earlier work.
Excerpt: as §1

In data set [5] the test system is SCLC and non-SCLC cell lines. The note with it: SCLC and non-SCLC cell lines in vitro; ref Reeve and Bleehan, 1994; cited from earlier work.
Excerpt: as §1

Data set [6] concerns non-SCLC, ovarian and cervical cancer cell lines. The note with it: ref Everard et al., 1992; cited from earlier work.
Excerpt: as §1

The test system of data set [7] is Swiss 3T3 cells stimulated by vasopressin. Description: [3H]thymidine uptake by Swiss 3T3 cells after mitogenic stimulation by vasopressin. The note with it: vasopressin 1 nM, 40 h, mean of duplicate samples. Type of data set: cell-based, murine.
In data set [8] the test system is Swiss 3T3 cells stimulated by bombesin. Description: [3H]thymidine uptake by Swiss 3T3 cells after mitogenic stimulation by bombesin. The note with it: bombesin 1 nM, insulin 1 µg/ml, 40 h, mean of duplicate samples. In kind it is cell-based, murine.
The subject of data set [9] is Swiss 3T3 cells stimulated by bradykinin. The experiment in a line: [3H]thymidine uptake by Swiss 3T3 cells after mitogenic stimulation by bradykinin. The note with it: bradykinin 1 nM, insulin 1 µg/ml, 40 h, mean of duplicate samples. Type of data set: cell-based, murine.
Data set [10] can be described thus: 1% (w/v) mouse liver homogenate in PBS (pH 7.4). As to conditions: 37?C, up to 1 h.
Another data set in a line: human plasma. As to conditions: cited from earlier work.
The nature of data set [11]: 2% w/v mouse liver homogenate in PBS (pH 7.4). As to conditions: 37?C, up to 2 h.

As to `CC(C)C[C@H](NC(=O)[C@H](CC(C)C)NC(=O)[C@@H](Cc1c[nH]c2ccccc12)NC(=O)[C@H](Cc1ccccc1)NC(=O)[C@@H](Cc1c[nH]c2ccccc12)NC(=O)[C@H](CCC(N)=O)NC(=O)[C@@H](Cc1ccccc1)NC(=O)[C@@H]1CCCN1C(=O)[C@H](CCCCN)NC(=O)[C@@H]1CCCN1C(=O)[C@H](N)CCCN=C(N)N)C(N)=O` [antagonist D, [D-Arg1, D-Phe5, D-Trp7,9, Leu11]substance P] (HELM PEPTIDE1{[dR].P.K.P.[dF].Q.[dW].F.[dW].L.L.[am]}$$$$V2.0), the “stability in human plasma” value in data set [1] is “stable”. The “amount of antagonist remaining after 1 h of incubation” value in [2] is 30.8 nmol. For the same compound, in [2] (1% mouse liver homogenate, 37°C (Figure 2)), the “stability relative to antagonist G” value is on record as “almost twice as stable as antagonist G”. Besides, in [2] (over the first 30 min, 1% mouse liver homogenate, 37°C), the “rate of disappearance relative to antagonist G” value is “half the rate of antagonist G”.
In the case of `CC(C)C[C@H](NC(=O)[C@H](CC(C)C)NC(=O)[C@@H](Cc1c[nH]c2ccccc12)NC(=O)[C@H](Cc1ccccc1)NC(=O)[C@@H](Cc1c[nH]c2ccccc12)NC(=O)[C@H](CCC(N)=O)NC(=O)[C@@H](Cc1ccccc1)NC(=O)[C@@H]1CCCN1C(=O)[C@H](CCCCN)NC(=O)[C@@H]1CCCN1C(=O)[C@H](N)CCCNC(=N)N)C(N)=O` [antagonist D, [D-Arg1, D-Phe5, D-Trp7,9, Leu11]substance P] (HELM PEPTIDE1{[dR].P.K.P.[dF].Q.[dW].F.[dW].L.L.[am]}$$$$V2.0), the “activity against other SCLC xenografts in vivo” value in data set [3] is “activity”. In the data set on SCLC cells, the “potency against SCLC cells in vitro relative to antagonist G” value is given as “equipotent to antagonist G”. The “growth of SCLC xenografts” value in [4] is on record as “inhibit the growth”. The induction of apoptosis result in [5] was “induce apoptosis”. Moreover, the “in vitro activity against cancer cell lines” value in data set [6] is on record as “activity”. Besides, the IC50 – broadly, the concentration at which inhibition is half-maximal – in [7] ([3H]thymidine uptake, read-out: IC50 value, vasopressin stimulated growth) was less than 1000 nM.
Consider `CSCC[C@H](NC(=O)[C@H](CC(C)C)NC(=O)[C@@H](Cc1c[nH]c2ccccc12)NC(=O)[C@H](Cc1ccccc1)N(C)C(=O)[C@@H](Cc1c[nH]c2ccccc12)NC(=O)[C@@H](N)CCCNC(=N)N)C(N)=O` [antagonist G, [Arg6, D-Trp7,9, NmePhe8]substance P(6-11)] (HELM PEPTIDE1{R.[dW].[meF].[dW].L.M.[am]}$$$$V2.0), for which, in data set [4], the “growth of SCLC xenografts” value is listed as “inhibit the growth”. Besides, the “amount of antagonist remaining after 1 h of incubation” value in data set [2] was determined as 21.1 nmol.
Consider `CC(C)C[C@H](NC(=O)[C@H](CC(C)C)NC(=O)[C@@H](Cc1c[nH]c2ccccc12)NC(=O)[C@H](Cc1ccccc1)NC(=O)[C@@H](Cc1c[nH]c2ccccc12)NC(=O)[C@H](CCC(N)=O)NC(=O)[C@@H](Cc1ccccc1)NC(=O)[C@@H]1CCCN1C(=O)[C@H](CCCCN)NC(=O)[C@@H]1CCCN1C(=O)[C@H](N)CCCNC(=N)N)C(=O)O` [metabolite 1, H-D-Arg-Pro-Lys-Pro-D-Phe-Gln-D-Trp-Phe-D-Trp-Leu-Leu-OH] (HELM PEPTIDE1{[dR].P.K.P.[dF].Q.[dW].F.[dW].L.L}$$$$V2.0), for which the “vasopressin antagonist activity (inhibition of [3H]thymidine uptake)” value in data set [7] (insulin 1 µg/ml) is “inactive”. Moreover, in [2], the “amount of metabolite accumulated after 1 h” value stood at 9.6 nmol. Also, the “antagonist activity with respect to bombesin (inhibition of [3H]thymidine uptake)” value in [8] is given as “retained none of the antagonist properties”. Moreover, in data set [9], the “antagonist activity with respect to bradykinin (inhibition of [3H]thymidine uptake)” value is “retained none of the antagonist properties”.
On to `CC(C)C[C@H](NC(=O)[C@@H](Cc1c[nH]c2ccccc12)NC(=O)[C@H](Cc1ccccc1)NC(=O)[C@@H](Cc1c[nH]c2ccccc12)NC(=O)[C@H](CCC(N)=O)NC(=O)[C@@H](Cc1ccccc1)NC(=O)[C@@H]1CCCN1C(=O)[C@H](CCCCN)NC(=O)[C@@H]1CCCN1C(=O)[C@H](N)CCCNC(=N)N)C(=O)O` [metabolite 2, H-D-Arg-Pro-Lys-Pro-D-Phe-Gln-D-Trp-Phe-D-Trp-Leu-OH] (HELM PEPTIDE1{[dR].P.K.P.[dF].Q.[dW].F.[dW].L}$$$$V2.0), for which the “amount of metabolite accumulated after 1 h” value in data set [2] was found to be 12.3 nmol. Besides, in data set [8], the “antagonist activity with respect to bombesin (inhibition of [3H]thymidine uptake)” value is “retained none of the antagonist properties”. Further, in [9], the “antagonist activity with respect to bradykinin (inhibition of [3H]thymidine uptake)” value is recorded as “retained none of the antagonist properties”.
Take H-Arg-D-Trp-N"'Phe-D-Trp-Leu-Met-NH,: the cleaved bond result in data set [10] was “Met-NH2, major”.
For “H-D-Arg-Pro-Lys-Pro-D-Phe-GIn-D-Trp-Phe-D-Trp-Leu-Leu-NH2”, the cleaved bond entry is recorded as “Leu11-NH2, major; also recorded: Leu10-Leu11, major” in [10] and “Leu11-NH2, major; also recorded: Leu10-Leu11, major” in data set [11]. Moreover, the not cleaved entry in “human plasma” is given as “stable in human plasma”.

The values are drawn from article PMC2074379 (British Journal of Cancer, 1996).
